# Literature values as cited in patent US10555523B2, “Self indicating antimicrobial chemistry” (ECOLAB USA INC, priority 2015, dated 2020).
# Tested on: microorganisms
smiles,measurement,value
CC(=O)OO [Peracetic acid],concentration needed for biocidal activity,greater than 80 part per million
